# Experimental data as given in patent publication US20230072683A1, “PYRIDO-PYRIMIDIN DERIVATIVES AND PHARMACEUTICAL COMPOSITION, FOR USE IN PREVENTING OR TREATING PI3 KINASE RELATED DISEASES, COMPRISING SAME AS ACTIVE INGREDIENT” (BORYUNG PHARMACEUTICAL CO., LTD, priority 2019, published 2023).
# Assays:
# [1] = target: PI3K-δ (PI3K(p1108/p857) (h)) (Homo sapiens, UniProt O00329); assay: Evaluation of inhibitory activity against PI3K-δ (HTRF kinase assay); type: biochemical; settings: compound concentration 0.01 μM; read-out: EXP_VALUE(% Inhibition) PI3K-δ 0.01 μM
# Procedure, shortened: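 HTRF read-out (665/620 nm ratio ×10000) used Eu-labelled anti-GST, GST-tagged GRP1 PH domain and streptavidin-allophycocyanin after EDTA/PIP3 stop.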
# DNA-PK(h) = DNA-PK(h) (Homo sapiens, UniProt P78527); assay: Evaluation of inhibitory activity against DNA-PK (HTRF kinase assay, GST-cMyc-p53 substrate); type: biochemical; settings: compound concentration 0.01 μM; read-out: EXP_VALUE(% Inhibition) DNA-PK(h) 0.01 μM
# Procedure, shortened: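 p53 Ser15 phosphorylation by human DNA-PK was measured by time-resolved FRET ratio (665/620 nm ×10000) using Eu-labelled anti-phospho-Ser15 and d2 anti-GST antibodies. Substrate GST-cMyc-p53 at 50 μM; Mg/ATP-initiated, 30 min at room temperature, EDTA stop.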
# Chain of PI3K-δ (PI3K(p1108/p857) (h)) (O00329 whole entry, the tested form may be a part): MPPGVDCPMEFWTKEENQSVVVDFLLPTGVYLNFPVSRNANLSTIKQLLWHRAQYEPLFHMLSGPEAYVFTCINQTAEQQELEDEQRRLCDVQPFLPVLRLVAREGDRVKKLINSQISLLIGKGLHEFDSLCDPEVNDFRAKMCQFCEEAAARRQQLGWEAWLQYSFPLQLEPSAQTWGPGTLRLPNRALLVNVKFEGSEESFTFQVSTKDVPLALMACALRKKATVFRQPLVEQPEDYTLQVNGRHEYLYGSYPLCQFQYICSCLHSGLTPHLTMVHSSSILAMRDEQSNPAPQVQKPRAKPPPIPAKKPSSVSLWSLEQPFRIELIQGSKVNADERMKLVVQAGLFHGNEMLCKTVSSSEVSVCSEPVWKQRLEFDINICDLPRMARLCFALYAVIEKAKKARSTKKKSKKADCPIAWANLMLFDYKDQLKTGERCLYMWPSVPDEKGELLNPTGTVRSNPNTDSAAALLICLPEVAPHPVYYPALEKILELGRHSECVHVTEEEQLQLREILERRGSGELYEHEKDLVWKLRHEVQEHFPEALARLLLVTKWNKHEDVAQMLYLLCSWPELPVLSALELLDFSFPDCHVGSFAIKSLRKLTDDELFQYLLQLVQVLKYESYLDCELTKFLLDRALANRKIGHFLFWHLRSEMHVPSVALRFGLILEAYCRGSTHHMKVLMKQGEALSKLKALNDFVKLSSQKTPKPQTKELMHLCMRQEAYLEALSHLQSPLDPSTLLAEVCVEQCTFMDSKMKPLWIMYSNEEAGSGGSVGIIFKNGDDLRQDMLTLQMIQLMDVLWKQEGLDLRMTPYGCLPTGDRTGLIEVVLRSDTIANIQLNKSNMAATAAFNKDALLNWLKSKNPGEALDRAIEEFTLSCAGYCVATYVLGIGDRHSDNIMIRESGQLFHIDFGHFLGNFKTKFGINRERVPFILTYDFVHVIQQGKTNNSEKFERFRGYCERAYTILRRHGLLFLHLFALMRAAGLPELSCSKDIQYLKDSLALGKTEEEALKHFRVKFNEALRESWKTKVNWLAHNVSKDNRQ
# Chain of PI3K-δ (PI3K(p1108/p857) (h)) (P27986 whole entry partner, the tested form may be a part): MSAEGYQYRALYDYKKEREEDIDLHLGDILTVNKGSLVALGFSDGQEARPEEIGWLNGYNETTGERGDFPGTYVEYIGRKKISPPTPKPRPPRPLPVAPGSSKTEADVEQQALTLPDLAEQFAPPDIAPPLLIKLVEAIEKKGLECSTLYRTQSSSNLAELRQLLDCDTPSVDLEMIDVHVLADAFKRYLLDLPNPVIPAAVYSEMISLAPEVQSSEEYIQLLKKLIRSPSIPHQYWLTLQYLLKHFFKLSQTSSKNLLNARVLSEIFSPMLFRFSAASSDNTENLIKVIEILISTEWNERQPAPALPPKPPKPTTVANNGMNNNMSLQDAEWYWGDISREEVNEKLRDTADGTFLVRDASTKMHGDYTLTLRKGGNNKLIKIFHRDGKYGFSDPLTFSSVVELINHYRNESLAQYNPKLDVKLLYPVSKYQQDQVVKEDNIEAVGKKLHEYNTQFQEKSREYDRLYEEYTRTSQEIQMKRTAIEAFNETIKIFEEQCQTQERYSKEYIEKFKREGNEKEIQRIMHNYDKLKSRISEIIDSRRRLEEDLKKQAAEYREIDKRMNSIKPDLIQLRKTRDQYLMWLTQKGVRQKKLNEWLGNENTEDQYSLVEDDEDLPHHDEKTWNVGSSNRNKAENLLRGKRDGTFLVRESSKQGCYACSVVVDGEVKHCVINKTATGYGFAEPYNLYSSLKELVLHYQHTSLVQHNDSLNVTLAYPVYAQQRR
Compound,inhibition at 0.01 µM [1] [%],inhibition at 0.01 µM (DNA-PK(h)) [%]
"COc1ncc(-c2cccc3c(Cl)c([C@H](C)Nc4ncnc5[nH]ccc(=O)c45)n(-c4ccccc4)c(=O)c23)cc1NS(C)(=O)=O [Example 225, (S)—N-(5-(4-chloro-1-oxo-3-(1-((5-oxo-5,8-dihydropyrido[2,3-d]pyrimidin-4-yl)amino)ethyl)-2-phenyl-1,2-dihydroisoquinolin-8-yl)-2-methoxypyridin-3-yl)methanesulfonamide]",74,76
"C[C@H](Nc1ncnc2[nH]ccc(=O)c12)c1c(Cl)c2cccc(-c3cc[nH]n3)c2c(=O)n1-c1ccccc1 [Example 226, (S)-4-((1-(4-chloro-1-oxo-2-phenyl-8-(1H-pyrazol-3-yl)-1,2-dihydroisoquinolin-3-yl)ethyl)amino)pyrido[2,3-d]pyrimidin-5(8H)-one]",83,56
"C[C@H](Nc1ncnc2[nH]ccc(=O)c12)c1c(Cl)c2cccc(-c3cn[nH]c3)c2c(=O)n1-c1ccccc1 [Example 227, (S)-4-((1-(4-chloro-1-oxo-2-phenyl-8-(1H-pyrazol-4-yl)-1,2-dihydroisoquinolin-3-yl)ethyl)amino)pyrido[2,3-d]pyrimidin-5(8H)-one]",93,73
"CCNc1ncc(-c2cccc3c(Cl)c([C@H](C)Nc4ncnc5[nH]ccc(=O)c45)n(-c4ccccc4)c(=O)c23)cn1 [Example 228, (S)-4-((1-(4-chloro-8-(2-(ethylamino)pyrimidin-5-yl)-1-oxo-2-phenyl-1,2-dihydroisoquinolin-3-yl)ethyl)amino)pyrido[2,3-d]pyrimidin-5(8H)-one]",88,78
"COc1ncc(-c2cccc3c(Cl)c([C@H](C)Nc4ncnc5[nH]ccc(=O)c45)n(-c4ccccc4)c(=O)c23)cc1C#N [Example 229, (S)-5-(4-chloro-1-oxo-3-(1-((5-oxo-5,8-dihydropyrido[2,3-d]pyrimidin-4-yl)amino)ethyl)-2-phenyl-1,2-dihydroisoquinolin-8-yl)-2-methoxynicotinonitrile]",68,45
"CCOc1cnc(-c2cccc3c(Cl)c([C@H](C)Nc4ncnc5[nH]ccc(=O)c45)n(-c4ccccc4)c(=O)c23)cn1 [Example 230, (S)-4-((1-(4-chloro-8-(5-ethoxypyrazin-2-yl)-1-oxo-2-phenyl-1,2-dihydroisoquinolin-3-yl)ethyl)amino)pyrido[2,3-d]pyrimidin-5(8H)-one]",76,41
"COc1ncc(-c2cccc3c(Cl)c([C@H](C)Nc4ncnc5[nH]ccc(=O)c45)n(-c4ccccc4)c(=O)c23)cc1NS(=O)(=O)c1ccc(F)cc1F [Example 232, (S)—N-(5-(4-chloro-1-oxo-3-(1-((5-oxo-5,8-dihydropyrido[2,3-d]pyrimidin-4-yl)amino)ethyl)-2-phenyl-1,2-dihydroisoquinolin-8-yl)-2-methoxypyridin-3-yl)-2,4-difluorobenzenesulfonamide]",23,15
"C[C@H](Nc1ncnc2[nH]ccc(=O)c12)c1c(Cl)c2cccc(-c3ccc4nsnc4c3)c2c(=O)n1-c1ccccc1 [Example 233, (S)-4-((1-(8-(benzo[c][1,2,5]thiadiazol-5-yl)-4-chloro-1-oxo-2-phenyl-1,2-dihydroisoquinolin-3-yl)ethyl)amino)pyrido[2,3-d]pyrimidin-5(8H)-one]",77,60
"Cc1cc(-c2cccc3c(Cl)c([C@H](C)Nc4ncnc5[nH]ccc(=O)c45)n(-c4ccccc4)c(=O)c23)n[nH]1 [Example 234, (S)-4-((1-(4-chloro-8-(5-methyl-1H-pyrazol-3-yl)-1-oxo-2-phenyl-1,2-dihydroisoquinolin-3-yl)ethyl)amino)pyrido[2,3-d]pyrimidin-5(8H)-one]",85,50
"C[C@H](Nc1ncnc2[nH]ccc(=O)c12)c1c(Cl)c2cccc(-c3cnc4nonc4c3)c2c(=O)n1-c1ccccc1 [Example 235, (S)-4-((1-(8-([1,2,5]oxadiazolo[3,4-b]pyridin-6-yl)-4-chloro-1-oxo-2-phenyl-1,2-dihydroisoquinolin-3-yl)ethyl)amino)pyrido[2,3-d]pyrimidin-5(8H)-one]",80,46
"C[C@H](Nc1ncnc2[nH]ccc(=O)c12)c1c(Cl)c2cccc(-c3cnoc3)c2c(=O)n1-c1ccccc1 [Example 238, (S)-4-((1-(4-chloro-8-(isoxazol-4-yl)-1-oxo-2-phenyl-1,2-dihydroisoquinolin-3-yl)ethyl)amino)pyrido[2,3-d]pyrimidin-5(8H)-one]",15,15

# Next, values leading:
inhibition at 0.01 µM [1] [%],inhibition at 0.01 µM (DNA-PK(h)) [%],Compound
57,19,"C[C@H](Nc1ncnc2[nH]ccc(=O)c12)c1c(Cl)c2cccc(-c3cnc(N4CCCCC4)nc3)c2c(=O)n1-c1ccccc1 [Example 224, (S)-4-((1-(4-chloro-1-oxo-2-phenyl-8-(2-(piperidin-1-yl)pyrimidin-5-yl)-1,2-dihydroisoquinolin-3-yl)ethyl)amino)pyrido[2,3-d]pyrimidin-5(8H)-one]"
44,67,"C[C@H](Nc1ncnc2[nH]ccc(=O)c12)c1c(Cl)c2cccc(-c3ccc(CN4CCOCC4)cc3F)c2c(=O)n1-c1ccccc1 [Example 231, (S)-4-((1-(4-chloro-8-(2-fluoro-4-(morpholinomethyl)phenyl)-1-oxo-2-phenyl-1,2-dihydroisoquinolin-3-yl)ethyl)amino)pyrido[2,3-d]pyrimidin-5(8H)-one]"
79,46,"C[C@H](Nc1ncnc2[nH]ccc(=O)c12)c1c(Cl)c2cccc(-c3ccc4[nH]ncc4c3)c2c(=O)n1-c1ccccc1 [Example 236, (S)-4-((1-(4-chloro-8-(1H-indazol-5-yl)-1-oxo-2-phenyl-1,2-dihydroisoquinolin-3-yl)ethyl)amino)pyrido[2,3-d]pyrimidin-5(8H)-one]"
85,29,"C[C@H](Nc1ncnc2[nH]ccc(=O)c12)c1c(Cl)c2cccc(-c3cccc4c3cnn4C)c2c(=O)n1-c1ccccc1 [Example 237, (S)-4-((1-(4-chloro-8-(1-methyl-1H-indazol-4-yl)-1-oxo-2-phenyl-1,2-dihydroisoquinolin-3-yl)ethyl)amino)pyrido[2,3-d]pyrimidin-5(8H)-one]"
38,10,"C[C@H](Nc1ncnc2[nH]ccc(=O)c12)c1c(Cl)c2cccc(-c3cccc4cn[nH]c34)c2c(=O)n1-c1ccccc1 [Example 239, (S)-4-((1-(4-chloro-8-(1H-indazol-7-yl)-1-oxo-2-phenyl-1,2-dihydroisoquinolin-3-yl)ethyl)amino)pyrido[2,3-d]pyrimidin-5(8H)-one]"
61,22,"C[C@H](Nc1ncnc2[nH]ccc(=O)c12)c1c(Cl)c2cccc(-c3ccc4nonc4c3)c2c(=O)n1-c1ccccc1 [Example 240, (S)-4-((1-(8-(benzo[c][1,2,5]oxadiazol-5-yl)-4-chloro-1-oxo-2-phenyl-1,2-dihydroisoquinolin-3-yl)ethyl)amino)pyrido[2,3-d]pyrimidin-5(8H)-one]"
